Values belong to the molecule of their own block, whether it stands above or below them.
Assays:
squamous carcinoma cells = assay: TCPP uptake in squamous carcinoma cells, flow cytometry; format: cell-based; settings: squamous carcinoma cells grown in culture
[1] = test system: human small cell (oat cell) lung carcinoma; assay: TCPP uptake in small cell lung carcinoma cells; format: cell-based
[2] = test system: normal human lung epithelial cells; assay: TCPP uptake in normal lung epithelial cells; format: cell-based
[3] = test system: cancers of the lung grown in tissue cultures; assay: TCPP localization in lung cancers grown in tissue culture; format: cell-based
[4] = test system: neoplastic sputum cells (squamous cell lung carcinoma, oat cell lung carcinoma, lung adenocarcinoma, advanced metastatic lymphoma); assay: Fluorescence of sputum samples from lung cancer patients versus noncancerous patients; format: cell-based, human
Protocol: Studies were conducted using patients having confirmed squamous cell lung carcinoma, oat cell lung carcinoma, lung adenocarcinoma, and advanced metastatic lymphoma (lung metastasis) using procedures identical to those set forth above.

malignant sputum cells = assay: Porphyrin uptake in sputum cells evaluated with a fluorescent microscope; format: cell-based, human
From the text: Five parameters were investigated for this study: (1) the effect of various sputum processing procedures on the uptake of porphyrin in sputum cells, (2) the comparison of TCPP to three other porphyrins that are known for their uptake by tumors, (3) the time required for optimal uptake of the porphyrin in sputum cells, (4) the uptake of porphyrin in test and control sputum samples, and (5) the verification that TCPP was localizing in malignant sputum cells. In each of these investigations, the uptake of porphyrin in sputum cells was evaluated with a fluorescent microscope. Nonmetallated porphyrin fluoresces at approximately 650 nm. Sputum samples were evaluated for (1) the number of cells in the sputum samples which fluoresced, and (2) the intensity of the porphyrin fluorescence.
Sputum samples require processing in order to produce a single cell suspension of lung cells. Sputum samples from test and control patients were collected and processed with alcohol and carbowax, alcohol only, phosphate-buffered saline (PBS), or left unprocessed. All samples were mixed with a blender for 1 minute following the addition of the processing mixture and then placed into petri dishes containing various porphyrins. […] Cells in the unprocessed sputum samples remained attached to the bottom of the petri dish with only a few cells free of the mucous.
Four porphyrins selected for their known affinity for neoplastic cells were tested for their ability to detect malignant sputum cells. Sputum cells obtained from each of the four processing procedures set forth above were treated with one of hematoporphyrin derivative, HPD, 5,10,15,20-tetrakis(4-carboxyphenyl)porphine, TCPP, 5,10,15,20-tetrakis(4-sulfonatophenyl)porphine, TTPS, or uroporphyrin, URO. In all investigations, the porphyrins were dissolved in tissue culture medium at a concentration of 200 μg/ml. Following the addition of porphyrin, each sample was incubated at 37° C. for a specific length of time.
Following the incubation period, each sputum sample was examined for porphyrin uptake with a fluorescent microscope. The background fluorescence from porphyrin uptake by nonmalignant cells was lower in some measurements.
Each sputum sample was incubated at 37° C. with each of the porphyrins for either 6 or 24 hours and then evaluated for porphyrin uptake with a fluorescent microscope. At the 6 hour incubation period, the cells had begun to localize porphyrin; however, when the sputum cells were washed with PBS, the fluorescence diminished considerably. […] By 24 hours, by contrast, the uptale of porphyrin by sputum cells increased considerably. […] When the sputum cells that had been incubated for 24 hours were washed with PBS, the porphyrin remained attached to the cells. Longer incubation times were not investigated.
When porphyrin uptake in the test and control samples were compared (i.e., the number of sputum cells which fluoresced), the porphyrin uptake in the control samples was considerably lower than the uptake in the test samples. In addition, the fluorescence intensity of the few control cells that did floresce was lower than the fluorescence intensity of the test cells.

neoplastic sputum cells = assay: TCPP fluorescence in PAP-stained neoplastic sputum cells; format: cell-based, human; settings: after PAP staining
From the text: To assist in the identification of the neoplastic cells, sputum samples which had the greatest TCPP uptake were stained with PAP stain, a stain routinely used by cytologists to identify neoplastic cells. Cells identified as neoplastic using the PAP stain were marked and re-examined for TCPP uptake with a fluorescent microscope.

[5] = Serum stability: loss of copper measured by fluorescence under simulated physiological conditions; format: in vitro ADME, human
From the text: An important consideration in the development of a radiopharmaceutical is the stability of the complex ^67 Cu TCPP to the loss of the radioisotope ^67 Cu in vivo.

[6] = Biological half-life study; format: in vivo; settings: rats, intravenous; exponential decay
From the text: (§1) A sterile dose of ^67 CuTCPP (1.0×10^-6 gm) was intravenously injected into the tail vein of rats.

[7] = Biodistribution in rats after intravenous injection; format: in vivo; settings: normal rats (no cancer), 1.0×10^-6 gm
From the text: as §1

[8] = 200 μg/ml, 37° C., four porphyrins compared

Molecule: O=C(O)c1ccc(-c2c3nc(c(-c4ccc(C(=O)O)cc4)c4ccc([nH]4)c(-c4ccc(C(=O)O)cc4)c4nc(c(-c5ccc(C(=O)O)cc5)c5ccc2[nH]5)C=C4)C=C3)cc1 [TCPP, 5,10,15,20-tetrakis(4-carboxyphenyl)porphine]
detection by flow cytometry (squamous carcinoma cells): can easily be detected using flow cytometry | TCPP uptake compared with normal cells ([1]; vs normal cells): considerably higher than uptake in normal cells | TCPP absorption lower than in squamous cell line ([1]; vs squamous cell line): 2-3 times lower | TCPP concentration relative to autofluorescence or background ([2]; normal human lung epithelial cells): only slightly above autofluorescence or background levels | TCPP concentration relative to neoplastic cell lines ([2]; vs neoplastic cell lines examined): many times lower concentration | incubation time for TCPP localization ([3]; 24 hours in TCPP): more than adequate to maximize the TCPP localization | effect of fixing the cells prior to TCPP exposure on TCPP uptake ([3]; fixed prior to TCPP exposure): increased the TCPP uptake | effect of paraformaldehyde fixation on TCPP uptake ([3]; paraformaldehyde vs alcohol and carbowax): slightly increase the TCPP uptake | localization in cultured lung cancers ([3]; tissue culture): localizes in cancers of the lung grown in tissue cultures | uptake of porphyrin in neoplastic sputum cells ([4]; carbowax and ethanol): greatest uptake of porphyrin in neoplastic sputum cells | number of fluorescent cells times fluorescence intensity, cancer patients vs noncancerous patients ([4]; sputum samples): 3-6 times | contrast (brightness) between fluorescing malignant cells and background fluorescence (malignant sputum cells; [8]): greatest contrast (brightness) | number of cells fluorescing (malignant sputum cells; [8]): greatest number of cells fluorescing | porphyrin uptake (malignant sputum cells; [8]): significant porphyrin uptake in the malignant bodies | TCPP uptake by sputum processing procedure (malignant sputum cells; alcohol or alcohol/carbowax processing vs PBS or unprocessed): highest TCPP uptake | difference between the uptake of porphyrin by test and control sputum cells (malignant sputum cells; four porphyrins compared): most dramatic difference | TCPP fluorescence in neoplastic cells identified by PAP stain (neoplastic sputum cells): seen in every neoplastic cell

conversion (loss of copper) ([5]; human serum albumin, EDTA and DTPA, up to 12 days, one percent is the limit of detection): less than one | biological half-life [6]: 108 hours | major organs of localization ([7]; tail vein): liver and kidney
Molecule: O=C([O-])c1ccc(C2=C3C=CC(=N3)C(c3ccc(C(=O)[O-])cc3)=C3C=CC(=N3)C(=c3ccc(=C([O-])[O-])cc3)c3ccc([n-]3)C(c3ccc(C(=O)[O-])cc3)=C3C=CC2=N3)cc1.[67Cu+2].[H+].[H+].[H+].[H+] [^67 CuTCPP]
transcomplexation with other metal ions ([5]; ultraviolet-visible spectroscopy): no detectable transcomplexation with other metal ions | uptake by normal lung tissue [7]: does not appear to take up significant quantities

Molecule: uroporphyrin [reference compound]
porphyrin uptake (malignant sputum cells; [8]): least porphyrin uptake
